{"source": "patent US20260023068A1", "about": "“USE OF A FBXO42 SPECIFIC INHIBITOR IN TREATING NOTCH SIGNALING-DEPENDENT DISEASE” (WESTLAKE UNIVERSITY, priority 2022, published 2026)", "key": {"JURKAT and HSB2 cells": {"system": "JURKAT and HSB2 cells", "experiment": "Cell viability, cell counting kit-8 assay", "format": "cell-based, human", "conditions": "JURKAT and HSB2, concentration gradient, 36 h, CCK-8 (FIG. 12L)", "protocol": "(§1) FBXO42-KO cells were rescued with WT FBXO42 or F-box deletion mutant and were used in the following studies. (A-C) The mRNA levels of Notch target genes in the treated HEK293T (A), JURKAT (B) and HSB2 (C) cells were determined by qPCR. (D-G) The invasion abilities of the treated JURKAT (D) and HSB2 (F) cells were evaluated using a 3D culture system with Matrigel. Scale bars, 50 μm. The respective average diameter of the spheres in D and F was summarized, respectively (E and G). (H-K) Anchorage-independent growth of the rescued JURKAT (H) and HSB2 (J) cells was measured using a soft agar colony formation assay. The number of colonies in H and J was counted and summarized, respectively (I and K). (L) JURKAT and HSB2 cells were treated with MLN4924 in a concentration-gradient manner for 36 h and then evaluated for the cell viability using cell counting kit-8 assay. (M and N) The expression of Notch target genes in MLN4924-treated JURKAT (M) and HSB2 (N) cells were determined by qPCR. (O-R) Anchorage-independent growth of MLN4924-treated JURKAT (0) and HSB2 (Q) cells was measured using soft agar colony formation assays. The number of colonies was counted and summarized (P and R). (A-R, n=3) The data are shown as the mean±SEM from the independent experiments. P values were calculated using one-way ANOVA for multiple comparisons or two-tailed Student's t-tests. *P<0.05, ** P<0.01, *** P<0.001."}, "[1]": {"system": "Notch target genes in JURKAT and HSB2 cells", "experiment": "qPCR of Notch target genes in leukemia cells", "format": "cell-based, human", "conditions": "JURKAT and HSB2, qPCR (FIGS. 12M and 12N)", "protocol": "as §1, with “P<0.001. […]” for “P<0.001.”"}, "JURKAT xenograft": {"system": "JURKAT xenograft", "format": "in vivo", "conditions": "30 mg/kg subcutaneously twice daily for 21 days, BALB/c nude mice (FIG. 13S-V)", "protocol": "(A-H) Xenograft tumor growth studies were performed with WT or FBXO42-KO JURKAT (A-D) and HSB2 (E-H) cells. Mice were euthanized 4 weeks after tumor cell injection. The tumors were excised, photographed, and weighed. The volumes (B and F) and weights (C and G) of the tumors were measured, respectively. The mRNA levels of Notch target genes in tumors were determined by qPCR, respectively (D and H). (I-K) In vivo leukemia mouse model was established by injecting WT and FBXO42-KO JURKAT cells carrying GFP into NSG mice intravenously. The percentage of GFP^+ leukemia cells in peripheral blood was measured weekly by flow cytometry analysis (I) and summarized (K). […] (L-O) Spleens in mice from different groups were excised, a representative image is shown (L), and the spleen weight was measured (M). Tumor cell invasion was evaluated by measuring GFP intensity by fluorescence microscopy (N) and hemoxylin and eosin staining (O). […] The volumes (S) and weights (T) of the tumors and mouse weight (U) were measured. (A-O, S-V, n=5, P-R, n=10) Quantitative data are presented as mean±SEM. P values were calculated using two-tailed Student's t-tests. *P<0.05, **P<0.01, NS, not significant.\nFor the evaluation of MLN4924 efficacy in vivo, 6- to 8-week-old female BALB/c nude mice were inoculated with 5×10^6 JURKAT cells subcutaneously in the right flank, and tumor growth was monitored with caliper measurements. […]"}}, "data": [{"smiles": "NS(=O)(=O)OC[C@@H]1C[C@@H](n2ccc3c(N[C@H]4CCc5ccccc54)ncnc32)C[C@@H]1O", "note": "[MLN4924]", "values": [{"measurement": "cell viability of leukemia cells", "setting": "JURKAT and HSB2 cells", "value": "diminished"}, {"measurement": "Notch target gene expression of leukemia cells", "setting": "[1]", "value": "diminished"}, {"measurement": "leukemia burden in vivo (tumor growth rate)", "setting": "JURKAT xenograft", "value": "reduced"}]}]}
